# Experimental data from patent US20150018411A1, “COMPOUNDS AS PPAR BETA/DELTA INHIBITORS FOR TREATING PPAR BETA/DELTA-MEDIATED DISEASES” (PHILIPPS-UNIVERSITAT MARBURG, priority 2011, published 2015).
# Experiments:
# [1] = test system: ANGPTL4 gene expression; experiment: Stimulus-induced ANGPTL4 expression in human fibroblasts; type: cell-based
# [2] = molecular target: T1, GST-PPAR beta/delta LBD (Homo sapiens, UniProt Q03181); experiment: Inhibition of agonist L165041-induced recruitment of co-activator peptide C33, TR-FRET; type: biochemical; conditions: 1 μM test substance, increasing concentrations of agonist L165041
# T1 construct: GST-PPAR beta/delta LBD (GST=glutathione S-transferase); purchased Invitrogen, Darmstadt, Germany
# T1 sequence (Q03181 211-439 limits assumed): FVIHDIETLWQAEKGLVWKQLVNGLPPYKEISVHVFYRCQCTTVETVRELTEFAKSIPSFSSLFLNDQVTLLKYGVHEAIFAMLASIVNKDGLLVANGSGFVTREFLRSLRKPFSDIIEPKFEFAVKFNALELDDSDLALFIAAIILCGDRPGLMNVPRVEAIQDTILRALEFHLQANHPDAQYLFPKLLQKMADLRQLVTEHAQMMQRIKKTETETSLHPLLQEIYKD
# Procedure: FIG. 3: Inhibition of agonist-induced co-activator peptide binding (A) and inverse agonist compound 1-induced corepressor peptide binding (B) by the substance of this invention compound 5. • The recruitment of the co-activator or corepressor peptide, respectively, is determined in a TR-FRET assay. As co-activator peptide, C33 is utilized, as corepressor peptide SMRT-ID2. The experiment is performed with a constant concentration of 1 μM of the substance of this invention compound 5 and increasing concentrations of the agonist L165041 (A) or the inverse agonist compound 1 (B), respectively.
# C) The inhibition of the recruitment of co-activator peptide C33 known to the expert in this field mediated by PPAR beta/delta agonist L165,041 or the inhibition of the inverse agonist inventive compound 1-mediated binding of the corepressor peptide SMRT-ID2 to GST-PPAR beta/delta LBD by the substance of this invention compound 5 (1 μM) was also determined by TR-FRET measurements. Both is shown in FIGS. 3 A and B in dependency of the concentration of the agonist (A) and the inverse agonist (B), respectively.
SMILES,"induction of ANGPTL4 expression by TGF-beta1, TGF-beta2, dexamethasone or TPA [1]",inhibition of agonist-induced recruitment of co-activator peptide C33 [2]
"CCCCCCNc1ccc(NS(=O)(=O)c2ccsc2C(=O)OC)c(OC)c1 [compound 1, methyl 3-(N-(4-(hexylamino)-2-methoxyphenyl)sulfamoyl)thiophene-2-carboxylate]",significantly be reduced,
"COC(=O)c1sccc1S(=O)(=O)Nc1ccc(NC(C)(C)C)cc1OC [compound 5, methyl 3-(N-(4-(tert-butylamino)-2-methoxyphenyl)sulfamoyl)thiophene-2-carboxylate]",,prevents
